Literature values in patent publication US9023417B2, “Use of a polyamine-poor composition for the production of a medical human food” (Univeriste de Rennes 1, priority 2003, dated 2015).

Tested on: Escherischia coli

Row | Structure (SMILES) | inhibition of the synthesis of polyamines in Escherischia coli
1 | C[C@](N)(CCCN)C(=O)O [Alpha-methylornithine, alpha-methylornithine] | inhibiting the synthesis of polyamines
2 | NCCC[C@](N)(C(=O)O)C(F)F [a-DFMO, 2-difluoromethylornithine] | not the case
